We go through three compounds from US20260137697A1, “THIAZOLO[5,4-D]PYRIMIDINE COMPOUNDS, COMPOSITIONS COMPRISING THEM AND USES THEREOF” (University de Montreal, priority 2022, published 2026).

Like-named read-outs stand apart in the source and are kept apart here. Where only a bound is given, the exact number is not on record here.

Assay type in all cases: cell-based, human
The test system of assay [1] is pERK, Mewo cells. The experiment in a line: Phospho-ERK inhibition, AlphaLISA p-ERK 1/2, Mewo. To be noted: Table D-2; for IC50: Mewo (NF1 LOF); for pERK value in parentheses, % inhibition (Ymin): Mewo, lowest point of IC50 curve. As to the method: (§1) All cancer cell lines (A375, A101D, A2058, RKO, HT29 SK-MEL 30, IPC298, HepG2, HCT-116, Lovo, SW620, SW480, NCI-H358, NCI-H2122, Calu-6, NCIH2087, NCIH1755, NCIH1666 and Mewo) were obtained from ATCC and cultured in RPM1-1640 medium (Gibco) supplemented with 5% heat inactivated fetal bovine serum (FBS, Wisent) at 37° C. under 5% CO2. Cells were maintained in T175 flasks (Greiner). They were passaged by removing the culture medium, washing once in 10 mL of room temperature Phosphate Buffered Saline (PBS; Wisent) and incubating at 37° C. with 2 mL of 0.05% Trypsin (Thermo-Fisher). Trypsin was then inactivated by adding complete growth medium and the cells were then replated in a T175 culture dish at the appropriate dilution. All cell lines were routinely tested for mycoplasma contamination. Tissue type and mutational status of each cell line can be found in Table B.
(§2) (c) Measurement of Phospho-ERK Inhibition in Cultivated Human Cancer Cell Lines by the AlphaLISA® SureFire® Ultra™ p-ERK 1/2 (Thr2O2/Tyr204)
(§3) AlphaLISA® SureFire® Ultra™ p-ERK 1/2 (Thr202/Tyr204) analysis was conducted on cells plated in 100 μL of complete RPMI-1640 growth medium in 96-well flat-bottomed transparent dishes (Costar) at a density indicated in Table C. Cells were maintained overnight at 37° C. under 5% CO2 before treatment with compounds' dilution series for one hour. The cell density in cells/cm^2 corresponds to cell number divided by the area of one well of a 96-well plate (0.143 cm^2).
(§4) In a dilution series 100 μL/well of test substance dilution prepared in complete RPMI-1640 growth media was added to the cells. The dilution series is selected so that ten concentrations cover a range from 10 μM to 0.33 nM. If necessary, the initial concentration of 10 μM is increased to 100 μM or lowered to 1 μM (as in the case of A375 and H1666 cells, which are generally more sensitive to the compounds) and further dilution is carried out accordingly. The final concentration of DMSO in the assay is set at 0.5%.
(§5) After treatment, media was removed, and cells were lysed in 50 μL of 1× AlphaScreen Ultra Lysis Buffer (Perkin Elmer). The AlphaLISA® SureFire® Ultra™ p-ERK 1/2 (Thr202/Tyr204) (PerkinElmer) reactions were performed with 5 μL of cell lysate according to the manufacturer's specifications in 384-well proxyplates (Perkin Elmer) followed by overnight incubation of the reactions at room temperature in a humidified chamber. After completion of the reactions, the signals were recorded on an EnVision plate reader (Perkin Elmer) using built in AlphaLISA® settings.
(§6) The effect of each compound dilution on the pERK signal was expressed in % inhibition and calculated as follows. An internal 100% inhibition control (1 μM trametinib, cat. No. HY-10999; MedChem Express; CAS No. 871700-17-3) was included in each plate and used as a measure of pERK background. First, the value obtained for trametinib was subtracted from each data point. The average of DMSO (vehicle) controls (set as 0% inhibition) was established and used to calculate % inhibition:
(§7) The ability of each compound to inhibit pERK signal was expressed as an IC50 value obtained by plotting the inhibition values for each data point of a dilution series and fitting the obtained curves using a log(agonist) versus response—variable slope (four parameters) function using GraphPadPrism (V7.0) or Dotmatics Screening Ultra platform.
(§8) When present, paradoxical pERK induction is inferred from the negative % inhibition values observed in the pERK IC50 curves of a compound.

Assay [2] deals with A375 cells. The assay can be described thus: Proliferation inhibition, CellTiter-Glo, A375. To be noted: Table D-1, A375 (BRAF V600E), 3 days, read-out: Prolif. (proliferation EC50). As to the method:
as §1
(§9) CellTiter-Glo® viability analysis was conducted on cells plated in 100 μL of complete RPMI-1640 growth medium in 96-well flat-bottomed white opaque plates (Greiner or Croning) at a density indicated in Table E (for each CCL, number of cells plated per well of a 96-well plate to perform the CellTiter-Glo® cell viability assay). The cell density in cells/cm^2 would correspond to cell number divided by the area of one well of a 96-well plate (0.32 cm^2). […]
(§10) After 3 days of incubation, the growth media were removed by aspiration and 60 μL of diluted CellTiter-Glo® reagent (10 μL CellTiter-Glo® reagent+50 μL of PBS) was added to each well. […] Luminescence signals were then acquired on a Synergy Neo2 plate reader (Biotek).
(§11) The effect of each compound dilution on the proliferation of cancer cell lines was expressed in % inhibition and calculated as follows. […]
(§12) The ability of each compound to inhibit proliferation was expressed as a EC50 value obtained by plotting the effect values for each data point of a dilution series and fitting the obtained curves using a log(agonist) versus response—variable slope (four parameters) function using GraphPadPrism (V7.0) or Dotmatics Screening Ultra platform.

For assay [3], the system named is SK-MEL30 cells. The assay can be described thus: Proliferation inhibition, CellTiter-Glo, SK-MEL30. To be noted: Table D-1, SK-MEL30 (NRAS-Q61K), 3 days, read-out: Prolif. (proliferation EC50). The protocol: as §1, §9, §10, §11, §12
For assay [4], the system named is NCIH1755 cells. The assay can be described thus: Proliferation inhibition, CellTiter-Glo, NCIH1755. To be noted: Table D-2, NCIH1755 (BRAF G469A), 3 days, read-out: Prolif. (proliferation EC50). As to the method: as §1, §9, §10, §11, §12
Assay [5] concerns Mewo cells. The experiment in a line: Proliferation inhibition, CellTiter-Glo, Mewo. To be noted: Table D-2, Mewo (NF1 LOF), 3 days, read-out: Prolif. (proliferation EC50). The protocol:
as §1, §9, §10, §11, §12

For assay [6], the system named is pERK, SW480 cells. The assay can be described thus: Phospho-ERK inhibition, AlphaLISA p-ERK 1/2, SW480. To be noted: Table D-2; for IC50: SW480 (KRAS G12D); for pERK value in parentheses, % inhibition (Ymin): SW480, lowest point of IC50 curve. The protocol: as §1, §2, §3, §4, §5, §6, §7, §8

As to `Cc1ccc2c(Nc3cccc(Cl)c3F)nccc2c1NC(=O)c1csc2c(N)ncnc12` [Belvarafenib, reference compound], the half-inhibitory concentration (IC50) in assay [1] (Homo sapiens) and in assay [6] (Homo sapiens) was 30 to 300 nM in each case. The figures for the “pERK value in parentheses, % inhibition (Ymin)” value (“pERK value … % inhibition (Ymin)” for short) in assay [1] and in assay [6] were “(−116) %” and “(−100) %”, respectively. The EC50 was less than 300 nM in assay [2] (Homo sapiens, A-375, 72 h); less than 300 nM in assay [3] (Homo sapiens, SK-MEL-30, 72 h); greater than 3000 nM in assay [4] (Homo sapiens, NCI-H1755, 72 h); 300 to 3000 nM in assay [5] (Homo sapiens, 72 h).
`Cc1c(F)cccc1S(=O)(=O)Nc1ccc(F)c(Nc2ncnc3sc(-n4cc(C(=O)N5C6CCC5CN(C)C6)c5ccccc54)nc23)c1F` [Example 44]: the 50% inhibitory concentration (IC50) in assay [1] was less than 30 nM; in assay [6], 30 to 300 nM. Besides, the results for the “pERK value … % inhibition (Ymin)” value in assay [1] and in assay [6] were “(3) %” and “(−4) %”, respectively. In addition, the EC50 in assay [2], in assay [3], in assay [4] and in assay [5] was less than 300 nM throughout.
For `N#CC1(c2cccc3c2ncn3-c2nc3c(Nc4c(F)ccc(NS(=O)(=O)c5cccc(Cl)c5Cl)c4F)ncnc3s2)CC1` [Example 122], the half-inhibitory concentration (IC50) in assay [1] and in assay [6] was 30 to 300 nM in each case. Moreover, the “pERK value … % inhibition (Ymin)” value in assay [1] is reported as “(2) %”; in assay [6] it was “(5) %”. In addition, the EC50 in assay [2], in assay [3], in assay [4] and in assay [5] was less than 300 nM throughout.
